{"source": "patent US12501899B2", "about": "“Mite infestation treatment” (priority 2019, dated 2025)", "key": {"Varroa destructor": {"test_system": "Varroa destructor", "conditions": "after 24 hours"}, "Ixodes ricinus": {"test_system": "Ixodes ricinus", "assay": "Oral acaricidal test on ticks in membrane feeding wells with treated blood", "format": "in vivo", "conditions": "for mortality at 1 ppm / mortality at 10 ppm / mortality at 100 ppm: Ixodes ricinus, po", "procedure,_shortened": "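Ixodes ricinus nymphs and adults (batches of 12) fed through silicone membranes on ATP-enriched blood at 37 °C; after attachment (24 h), compounds at 1, 10, 100 ppm in 0.1% DMSO added for 24 h, blood changed at 12 h. Mortality, attachment and convulsions scored at 1–96 h.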"}}, "note": "Structures can show the parent of a compound that is named as a salt. Where two headings read alike, the source gives them in different places."}
{"smiles": "Cc1cccc([C@H](C)c2c[nH]cn2)c1C", "note": "[Dexmedetomidine hydrochloride, (S)-4-[1-(2,3-dimethylphenyl)-ethyl]-1H-imidazole]", "values": [{"measurement": "mortality for Varroa mites", "setting": "Varroa destructor; 0.1 μg/μL", "value": 100, "unit": "%"}, {"measurement": "mortality for Varroa mites", "setting": "Varroa destructor; 10 μg/μL", "value": 100, "unit": "%"}, {"measurement": "effect in terms of tick detachment (in words)", "setting": "Ixodes ricinus; 1, 10, 100 ppm, nymphs and adults", "value": "very limited effect"}, {"measurement": "detached nymphs in a replica", "setting": "Ixodes ricinus; 1 ppm, nymphs", "value": 1}, {"measurement": "detached adult ticks in a replica", "setting": "Ixodes ricinus; 100 ppm, adult ticks", "value": 1}, {"measurement": "mortality at 1 ppm", "setting": "Ixodes ricinus; adult ticks, 1 ppm, 1 h, read-out: average percentage of adult tick mortality (moribund or dead adult ticks)", "value": 0, "unit": "%"}, {"measurement": "mortality at 1 ppm", "setting": "Ixodes ricinus; adult ticks, 1 ppm, 3 h, read-out: average percentage of adult tick mortality (moribund or dead adult ticks)", "value": 0, "unit": "%"}, {"measurement": "mortality at 1 ppm", "setting": "Ixodes ricinus; adult ticks, 1 ppm, 6 h, read-out: average percentage of adult tick mortality (moribund or dead adult ticks)", "value": 3.1, "unit": "%"}, {"measurement": "mortality at 1 ppm", "setting": "Ixodes ricinus; adult ticks, 1 ppm, 12 h, read-out: average percentage of adult tick mortality (moribund or dead adult ticks)", "value": 3.1, "unit": "%"}, {"measurement": "mortality at 1 ppm", "setting": "Ixodes ricinus; adult ticks, 1 ppm, 24 h, read-out: average percentage of adult tick mortality (moribund or dead adult ticks)", "value": 64.2, "unit": "%"}, {"measurement": "mortality at 1 ppm", "setting": "Ixodes ricinus; adult ticks, 1 ppm, 48 h, read-out: average percentage of adult tick mortality (moribund or dead adult ticks)", "value": 88.2, "unit": "%"}, {"measurement": "mortality at 1 ppm", "setting": "Ixodes ricinus; adult ticks, 1 ppm, 72 h, read-out: average percentage of adult tick mortality (moribund or dead adult ticks)", "value": 100, "unit": "%"}, {"measurement": "mortality at 1 ppm", "setting": "Ixodes ricinus; adult ticks, 1 ppm, 96 h, read-out: average percentage of adult tick mortality (moribund or dead adult ticks)", "value": 100, "unit": "%"}, {"measurement": "mortality at 10 ppm", "setting": "Ixodes ricinus; adult ticks, 1 h, read-out: average percentage of adult tick mortality (moribund or dead adult ticks)", "value": 0, "unit": "%"}, {"measurement": "mortality at 10 ppm", "setting": "Ixodes ricinus; adult ticks, 3 h, read-out: average percentage of adult tick mortality (moribund or dead adult ticks)", "value": 0, "unit": "%"}, {"measurement": "mortality at 10 ppm", "setting": "Ixodes ricinus; adult ticks, 6 h, read-out: average percentage of adult tick mortality (moribund or dead adult ticks)", "value": 5.6, "unit": "%"}, {"measurement": "mortality at 10 ppm", "setting": "Ixodes ricinus; adult ticks, 12 h, read-out: average percentage of adult tick mortality (moribund or dead adult ticks)", "value": 11.1, "unit": "%"}, {"measurement": "mortality at 10 ppm", "setting": "Ixodes ricinus; adult ticks, 24 h, read-out: average percentage of adult tick mortality (moribund or dead adult ticks)", "value": 57.3, "unit": "%"}, {"measurement": "mortality at 10 ppm", "setting": "Ixodes ricinus; adult ticks, 48 h, read-out: average percentage of adult tick mortality (moribund or dead adult ticks)", "value": 79.5, "unit": "%"}, {"measurement": "mortality at 10 ppm", "setting": "Ixodes ricinus; adult ticks, 72 h, read-out: average percentage of adult tick mortality (moribund or dead adult ticks)", "value": 96.9, "unit": "%"}, {"measurement": "mortality at 10 ppm", "setting": "Ixodes ricinus; adult ticks, 96 h, read-out: average percentage of adult tick mortality (moribund or dead adult ticks)", "value": 100, "unit": "%"}, {"measurement": "mortality at 100 ppm", "setting": "Ixodes ricinus; adult ticks, 100 ppm, 1 h, read-out: average percentage of adult tick mortality (moribund or dead adult ticks)", "value": 0, "unit": "%"}, {"measurement": "mortality at 100 ppm", "setting": "Ixodes ricinus; adult ticks, 100 ppm, 3 h, read-out: average percentage of adult tick mortality (moribund or dead adult ticks)", "value": 0, "unit": "%"}, {"measurement": "mortality at 100 ppm", "setting": "Ixodes ricinus; adult ticks, 100 ppm, 6 h, read-out: average percentage of adult tick mortality (moribund or dead adult ticks)", "value": 5.9, "unit": "%"}, {"measurement": "mortality at 100 ppm", "setting": "Ixodes ricinus; adult ticks, 100 ppm, 12 h, read-out: average percentage of adult tick mortality (moribund or dead adult ticks)", "value": 11.8, "unit": "%"}, {"measurement": "mortality at 100 ppm", "setting": "Ixodes ricinus; adult ticks, 100 ppm, 24 h, read-out: average percentage of adult tick mortality (moribund or dead adult ticks)", "value": 63.9, "unit": "%"}, {"measurement": "mortality at 100 ppm", "setting": "Ixodes ricinus; adult ticks, 100 ppm, 48 h, read-out: average percentage of adult tick mortality (moribund or dead adult ticks)", "value": 76.4, "unit": "%"}, {"measurement": "mortality at 100 ppm", "setting": "Ixodes ricinus; adult ticks, 100 ppm, 72 h, read-out: average percentage of adult tick mortality (moribund or dead adult ticks)", "value": 91.3, "unit": "%"}, {"measurement": "mortality at 100 ppm", "setting": "Ixodes ricinus; adult ticks, 100 ppm, 96 h, read-out: average percentage of adult tick mortality (moribund or dead adult ticks)", "value": 100, "unit": "%"}, {"measurement": "mortality at 1 ppm", "setting": "Ixodes ricinus; nymphs, 1 ppm, 1 h, read-out: average percentage of mortality of tick nymphs (moribund or dead nymphs)", "value": 0, "unit": "%"}, {"measurement": "mortality at 1 ppm", "setting": "Ixodes ricinus; nymphs, 1 ppm, 3 h, read-out: average percentage of mortality of tick nymphs (moribund or dead nymphs)", "value": 0, "unit": "%"}, {"measurement": "mortality at 1 ppm", "setting": "Ixodes ricinus; nymphs, 1 ppm, 6 h, read-out: average percentage of mortality of tick nymphs (moribund or dead nymphs)", "value": 13.8, "unit": "%"}, {"measurement": "mortality at 1 ppm", "setting": "Ixodes ricinus; nymphs, 1 ppm, 12 h, read-out: average percentage of mortality of tick nymphs (moribund or dead nymphs)", "value": 31.3, "unit": "%"}, {"measurement": "mortality at 1 ppm", "setting": "Ixodes ricinus; nymphs, 1 ppm, 24 h, read-out: average percentage of mortality of tick nymphs (moribund or dead nymphs)", "value": 58.9, "unit": "%"}, {"measurement": "mortality at 1 ppm", "setting": "Ixodes ricinus; nymphs, 1 ppm, 48 h, read-out: average percentage of mortality of tick nymphs (moribund or dead nymphs)", "value": 85.7, "unit": "%"}, {"measurement": "mortality at 1 ppm", "setting": "Ixodes ricinus; nymphs, 1 ppm, 72 h, read-out: average percentage of mortality of tick nymphs (moribund or dead nymphs)", "value": 100, "unit": "%"}, {"measurement": "mortality at 1 ppm", "setting": "Ixodes ricinus; nymphs, 1 ppm, 96 h, read-out: average percentage of mortality of tick nymphs (moribund or dead nymphs)", "value": 100, "unit": "%"}, {"measurement": "mortality at 10 ppm", "setting": "Ixodes ricinus; nymphs, 1 h, read-out: average percentage of mortality of tick nymphs (moribund or dead nymphs)", "value": 0, "unit": "%"}, {"measurement": "mortality at 10 ppm", "setting": "Ixodes ricinus; nymphs, 3 h, read-out: average percentage of mortality of tick nymphs (moribund or dead nymphs)", "value": 9.2, "unit": "%"}, {"measurement": "mortality at 10 ppm", "setting": "Ixodes ricinus; nymphs, 6 h, read-out: average percentage of mortality of tick nymphs (moribund or dead nymphs)", "value": 24.9, "unit": "%"}, {"measurement": "mortality at 10 ppm", "setting": "Ixodes ricinus; nymphs, 12 h, read-out: average percentage of mortality of tick nymphs (moribund or dead nymphs)", "value": 48.3, "unit": "%"}, {"measurement": "mortality at 10 ppm", "setting": "Ixodes ricinus; nymphs, 24 h, read-out: average percentage of mortality of tick nymphs (moribund or dead nymphs)", "value": 83, "unit": "%"}, {"measurement": "mortality at 10 ppm", "setting": "Ixodes ricinus; nymphs, 48 h, read-out: average percentage of mortality of tick nymphs (moribund or dead nymphs)", "value": 96.9, "unit": "%"}, {"measurement": "mortality at 10 ppm", "setting": "Ixodes ricinus; nymphs, 72 h, read-out: average percentage of mortality of tick nymphs (moribund or dead nymphs)", "value": 100, "unit": "%"}, {"measurement": "mortality at 10 ppm", "setting": "Ixodes ricinus; nymphs, 96 h, read-out: average percentage of mortality of tick nymphs (moribund or dead nymphs)", "value": 100, "unit": "%"}, {"measurement": "mortality at 100 ppm", "setting": "Ixodes ricinus; nymphs, 100 ppm, 1 h, read-out: average percentage of mortality of tick nymphs (moribund or dead nymphs)", "value": 0, "unit": "%"}, {"measurement": "mortality at 100 ppm", "setting": "Ixodes ricinus; nymphs, 100 ppm, 3 h, read-out: average percentage of mortality of tick nymphs (moribund or dead nymphs)", "value": 13.3, "unit": "%"}, {"measurement": "mortality at 100 ppm", "setting": "Ixodes ricinus; nymphs, 100 ppm, 6 h, read-out: average percentage of mortality of tick nymphs (moribund or dead nymphs)", "value": 33, "unit": "%"}, {"measurement": "mortality at 100 ppm", "setting": "Ixodes ricinus; nymphs, 100 ppm, 12 h, read-out: average percentage of mortality of tick nymphs (moribund or dead nymphs)", "value": 59, "unit": "%"}, {"measurement": "mortality at 100 ppm", "setting": "Ixodes ricinus; nymphs, 100 ppm, 24 h, read-out: average percentage of mortality of tick nymphs (moribund or dead nymphs)", "value": 92.9, "unit": "%"}, {"measurement": "mortality at 100 ppm", "setting": "Ixodes ricinus; nymphs, 100 ppm, 48 h, read-out: average percentage of mortality of tick nymphs (moribund or dead nymphs)", "value": 100, "unit": "%"}, {"measurement": "mortality at 100 ppm", "setting": "Ixodes ricinus; nymphs, 100 ppm, 72 h, read-out: average percentage of mortality of tick nymphs (moribund or dead nymphs)", "value": 100, "unit": "%"}, {"measurement": "mortality at 100 ppm", "setting": "Ixodes ricinus; nymphs, 100 ppm, 96 h, read-out: average percentage of mortality of tick nymphs (moribund or dead nymphs)", "value": 100, "unit": "%"}, {"measurement": "ticks affected (convulsion, morbidity or death of ticks)", "setting": "Ixodes ricinus; from 1 hour of exposure, regardless of the concentration tested (1, 10, 100 ppm)", "value": 100, "unit": "%"}]}
